Test results published in patent publication EP1519709B1, “NOVEL COSMETIC APPLICATIONS OF POLYPHENOLS AND DERIVATIVES THEREOF” (Caudalie, priority 2002, dated 2004).
Read-outs that look alike come from different tables or passages of the source.

Target: tyrosinase (enzyme EC 1.14.18,1, issue de champignon)
Experiment: Tyrosinase inhibition test (L-dopa to dopachrome, read at 475 nm)
Assay type: biochemical
Conditions: for IC50: read-out: CI50 (the source's name)
Method: Mélange A : l'échantillon à tester à différentes concentrations (200 μL), ainsi qu'un "contrôle" (tampon phosphate, pH 6,5), sont incubés pendant 30 minutes à 37°C en présence de tyrosinase (enzyme EC 1.14.18,1, issue de champignon; 200μL, 300 U/mL). Mélange B : 200 μL de L-dopa (2,5 mM) sont additionnés à 400 μL de tampon phosphate (pH 6,5). Après les 30 minutes d'incubation, le mélange A est ajouté au mélange B et la dopachrome produite est mesurée à 475 nm au bout d'une minute […].

[1] = mushroom tyrosinase 300 U/mL, 30 min preincubation at 37°C, phosphate buffer pH 6,5, L-dopa 2,5 mM, dopachrome at 475 nm, mean with spread, n in cell

| SMILES | IC50 [1] [µM] | other results |
| --- | --- | --- |
| Oc1ccc(C=Cc2cc(O)cc(O)c2)cc1 [Bloc II, resvératrol, reference compound] |  | IC50 (bounds stated in running text for the tyrosinase inhibition tests under the conditions of the examples): > 60 µM |
| Oc1ccc(/C=C/c2cc(O)cc3c2[C@@H](c2cc(O)cc(O)c2)[C@H](c2ccc(O)cc2)O3)cc1 [Bloc VIII, ε-viniférine] |  | IC50 of the dimer relative to that of the monomer (resvératrol) (tyrosinase inhibition test): < 10 fois |
| Oc1ccc(C=Cc2cc(O)cc(O)c2)cc1 [II] | 61.4 |  |
| Oc1ccc(C=Cc2cc(O)cc3c2C(c2cc(O)cc(O)c2)C(c2ccc(O)cc2)O3)cc1 (stereo not shown) [VIII] | 10.4 |  |
